Measurements as given in PubChem BioAssay (NCI).
Several values for one entry are separate records, joined by “and”; a condition that tells them apart may be missing. Equal entries are not always repeated.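 Each compound was tested at five concentrations against cells in 96-well plates for 48 hours. GI50 marks 50% less growth. The concentration for full growth arrest is given as TGI.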

Key:
Experiment in all cases: NCI tumour cell line growth inhibition, 48 h
[1] = test system: SNB-75 CNS
[2] = test system: DLD-1 colon
[3] = test system: SN12K1 renal
[4] = test system: KM12 colon
[5] = test system: MCF7 breast
[6] = test system: NCI-H522 lung
[7] = test system: HL-60(TB) leukemia
[8] = test system: SK-MEL-5 melanoma
[9] = test system: SK-MEL-2 melanoma
[10] = test system: HOP-62 NSCLC
[11] = test system: NCI-H23 lung
[12] = test system: SK-MEL-28 melanoma
[13] = test system: U251 CNS
[14] = test system: K-562 leukemia
[15] = test system: SW-620 colon
[16] = test system: NCI-H460 lung
[17] = test system: SNB-78 CNS
[18] = test system: IGROV1 ovarian
[19] = test system: HOP-18 NSCLC
[20] = test system: MDA-N
[21] = test system: M19-MEL melanoma
[22] = test system: HOP-92 NSCLC
[23] = test system: HCC-2998 colon
[24] = test system: OVCAR-3 ovarian
[25] = test system: EKVX NSCLC
[26] = test system: DMS 114 small cell lung
[27] = test system: HS 578T breast
[28] = test system: CCRF-CEM leukemia
[29] = test system: UO-31 renal
[30] = test system: SF-539 CNS
[31] = test system: P388/ADR leukemia
[32] = test system: XF 498 CNS
[33] = test system: SF-295 CNS
[34] = test system: UACC-62 melanoma
[35] = test system: OVCAR-8 ovarian
[36] = test system: MOLT-4 leukemia
[37] = test system: 786-0 renal
[38] = test system: SNB-19 CNS
[39] = test system: OVCAR-5 ovarian
[40] = test system: NCI/ADR-RES ovarian
[41] = test system: OVCAR-4 ovarian
[42] = test system: COLO 205 colon
[43] = test system: MDA-MB-435
[44] = test system: M14 melanoma
[45] = test system: ACHN renal
[46] = test system: SN12C renal
[47] = test system: TK-10 renal
[48] = test system: T-47D breast
[49] = test system: CAKI-1 renal
[50] = test system: RPMI-8226 leukemia
[51] = test system: A549 NSCLC
[52] = test system: HT29 colon
[53] = test system: PC-3 prostate
[54] = test system: NCI-H226 lung
[55] = test system: UACC-257 melanoma
[56] = test system: KM20L2 colon
[57] = test system: HCT-116 colon
[58] = test system: MALME-3M melanoma
[59] = test system: RXF 393 renal
[60] = test system: MDA-MB-231 breast
[61] = test system: A498 renal
[62] = test system: SF-268 CNS
[63] = test system: HCT-15 colon
[64] = test system: RXF-631 renal
[65] = test system: SR leukemia
[66] = test system: LOX IMVI melanoma
[67] = test system: DMS 273 small cell lung
[68] = test system: LXFL 529 NSCLC
[69] = test system: SK-OV-3 ovarian

In the case of C=C1C(O)C2(O)OCC34C(CC5C(C)=CC(=O)C(O)C5(C)C23)OC(=O)C(OC(=O)C/C=C(\C)CCCCC)C14 (stereo not given), the GI50 [1] is reported as less than 1 nM, the TGI [1] is reported as 3.66 nM and 27.8 nM and the TGI [2] is reported as 159 nM. The TGI [3] was 16 nM, the GI50 [4] was less than 1 nM and the TGI [4] was 20.1 nM and 19 nM and 34.2 nM. It also gave a GI50 [5] of less than 1 nM, a GI50 [6] of less than 1 nM and a GI50 [7] of less than 1 nM. For the same molecule, the GI50 [8] was less than 1 nM, the TGI [8] was less than 1 nM and the GI50 [9] was 1.13 nM. The TGI [9] was 9.85 nM and 42 nM, the GI50 [10] was less than 1 nM and the GI50 [11] was less than 1 nM. The GI50 [12] was less than 1 nM, the GI50 [13] was less than 1 nM and the GI50 [14] was less than 1 nM. For the same molecule, the GI50 [15] was less than 1 nM, the TGI [15] was 15.8 nM and 119 nM and 26 nM and the GI50 [16] was less than 1 nM. It also gave a TGI [17] of 37.3 nM, a GI50 [18] of less than 1 nM and a TGI [19] of 1100 nM. The TGI [20] was 2.29 nM and 17.9 nM, the TGI [21] was 17.3 nM and the GI50 [22] was 1.57 nM. The TGI [22] was 6.64 nM and 19.5 nM and 23.4 nM, the GI50 [23] was less than 1 nM and the TGI [23] was 2.22 nM and 19 nM. The GI50 [24] was less than 1 nM, the TGI [24] was less than 1 nM and the GI50 [25] was 47.9 nM. The TGI [26] was 16.1 nM, the TGI [27] was less than 1 nM and the GI50 [28] was less than 1 nM. For the same molecule, the GI50 [29] was 48.3 nM and 258 nM, the TGI [29] was 269 nM and 1210 nM and 220 nM and the GI50 [30] was less than 1 nM. The TGI [31] was 454 nM, the TGI [32] was 23.2 nM and the GI50 [33] was 1.3 nM. The TGI [33] was 5.67 nM and 24.5 nM and 17.4 nM, the GI50 [34] was less than 1 nM and the GI50 [35] was less than 1 nM. For the same molecule, the TGI [35] was 5.65 nM and 19.2 nM and 18.8 nM, the GI50 [36] was less than 1 nM and the TGI [37] was 6.81 nM and 24.4 nM. For the same molecule, the GI50 [38] was less than 1 nM, the GI50 [39] was 2.2 nM and the GI50 [40] was 387 nM and 1460 nM. For the same molecule, the TGI [40] was 4220 nM and 6420 nM and 11500 nM, the GI50 [41] was less than 1 nM and the GI50 [42] was 1.23 nM. For the same molecule, the TGI [42] was 8.12 nM and 20.6 nM and 27.2 nM, the TGI [43] was 2.21 nM and the TGI [44] was 1.41 nM. For the same molecule, the TGI [45] was 8.56 nM and 51.8 nM, the GI50 [46] was 1.57 nM and the GI50 [47] was 23.9 nM. The TGI [47] was 11.9 nM and 86.5 nM, the TGI [48] was less than 1 nM and the GI50 [49] was 27.4 nM and 87.5 nM. The GI50 [50] was less than 1 nM, the GI50 [51] was 1.37 nM and the TGI [51] was 23.3 nM and 69.8 nM and 53.5 nM. The GI50 [52] was less than 1 nM, the TGI [53] was 3.2 nM and 14.1 nM and the GI50 [54] was less than 1 nM. The GI50 [55] was less than 1 nM, the TGI [56] was 199 nM and the GI50 [57] was less than 1 nM. The GI50 [58] was less than 1 nM, the TGI [58] was less than 1 nM and the GI50 [59] was less than 1 nM. The TGI [59] was 3.51 nM and 24.5 nM, the GI50 [60] was 30.2 nM and the TGI [60] was 21.8 nM and 162 nM. For the same molecule, the GI50 [61] was 2.49 nM and 22.3 nM, the TGI [61] was 9.41 nM and 57 nM and 25.5 nM and the GI50 [62] was less than 1 nM. For the same molecule, the GI50 [63] was 9.53 nM and 43.4 nM and the TGI [63] was 50.3 nM and 352 nM and 151 nM.
Work on COCCN1C2=CCCCC2=Nc2c1nc(N)[nH]c2=O yielded a TGI [1] greater than 100000 nM, a TGI [2] greater than 100000 nM and a TGI [4] greater than 100000 nM. For the same molecule, the TGI [6] was greater than 100000 nM, the TGI [7] was greater than 100000 nM and the TGI [8] was greater than 100000 nM. The TGI [10] was greater than 100000 nM, the TGI [11] was greater than 100000 nM and the TGI [12] was greater than 100000 nM. For the same molecule, the TGI [13] was greater than 100000 nM, the TGI [14] was greater than 100000 nM and the TGI [16] was greater than 100000 nM. The TGI [64] was greater than 100000 nM, the TGI [17] was greater than 100000 nM and the TGI [18] was greater than 100000 nM. The TGI [19] was greater than 100000 nM, the TGI [21] was greater than 100000 nM and the TGI [22] was greater than 100000 nM. It also gave a TGI [23] greater than 100000 nM, a TGI [24] greater than 100000 nM and a TGI [25] greater than 100000 nM. It also gave a TGI [26] greater than 100000 nM, a TGI [28] greater than 100000 nM and a TGI [29] greater than 100000 nM. It also gave a TGI [30] greater than 100000 nM, a TGI [65] greater than 100000 nM and a TGI [32] greater than 100000 nM. It also gave a TGI [33] greater than 100000 nM, a TGI [34] greater than 100000 nM and a TGI [35] greater than 100000 nM. It also gave a TGI [36] greater than 100000 nM, a TGI [37] greater than 100000 nM and a TGI [38] greater than 100000 nM. It also gave a TGI [39] greater than 100000 nM, a TGI [66] greater than 100000 nM and a TGI [42] greater than 100000 nM. For the same molecule, the TGI [67] was greater than 100000 nM, the TGI [44] was greater than 100000 nM and the TGI [45] was greater than 100000 nM. It also gave a TGI [46] greater than 100000 nM, a TGI [47] greater than 100000 nM and a TGI [68] greater than 100000 nM. The TGI [49] was greater than 100000 nM, the TGI [69] was greater than 100000 nM and the TGI [50] was greater than 100000 nM. For the same molecule, the TGI [51] was greater than 100000 nM, the TGI [52] was greater than 100000 nM and the TGI [54] was greater than 100000 nM. It also gave a TGI [55] greater than 100000 nM, a TGI [56] greater than 100000 nM and a TGI [57] greater than 100000 nM. The TGI [58] was greater than 100000 nM, the TGI [59] was greater than 100000 nM and the TGI [61] was greater than 100000 nM. The TGI [62] was greater than 100000 nM and the TGI [63] was greater than 100000 nM.
Work on N#C/C(=C1\OC(=O)C(c2ccc(Br)cc2)=C1O)c1ccc(Br)cc1 yielded a TGI [1] of 32400 nM, a TGI [2] of 34600 nM and a TGI [4] of 28500 nM. It also gave a TGI [6] of 25600 nM, a TGI [7] of 44600 nM and a TGI [10] of 33300 nM. For the same molecule, the TGI [11] was 26200 nM, the TGI [12] was 31700 nM and the TGI [13] was 26100 nM. For the same molecule, the TGI [14] was 61700 nM, the TGI [15] was 27300 nM and the TGI [16] was 30400 nM. For the same molecule, the TGI [64] was 92600 nM, the TGI [17] was 28200 nM and the TGI [18] was 34400 nM. It also gave a TGI [19] of 26300 nM, a TGI [21] of 31100 nM and a TGI [22] of 30000 nM. For the same molecule, the TGI [23] was 28900 nM, the TGI [24] was 28200 nM and the TGI [25] was 31600 nM. It also gave a TGI [26] of 25900 nM, a TGI [28] of 51100 nM and a TGI [29] of 28500 nM. It also gave a TGI [30] of 30000 nM, a TGI [65] of 55600 nM and a TGI [32] of 25600 nM. For the same molecule, the TGI [33] was 32800 nM, the TGI [34] was 25900 nM and the TGI [35] was 24600 nM. The TGI [36] was 57100 nM, the TGI [37] was 27900 nM and the TGI [38] was 27500 nM. It also gave a TGI [39] of 33200 nM, a TGI [66] of 30700 nM and a TGI [41] of 34300 nM. For the same molecule, the TGI [42] was 34500 nM, the TGI [67] was 48200 nM and the TGI [44] was 28400 nM. It also gave a TGI [45] of 29600 nM, a TGI [46] of 23600 nM and a TGI [47] of 36700 nM. For the same molecule, the TGI [68] was 22100 nM, the TGI [49] was 35600 nM and the TGI [69] was 39900 nM. The TGI [50] was 43600 nM, the TGI [51] was 44200 nM and the TGI [52] was 34500 nM. For the same molecule, the TGI [54] was 34000 nM, the TGI [55] was 29500 nM and the TGI [56] was 31500 nM. The TGI [57] was 32400 nM, the TGI [58] was 31000 nM and the TGI [59] was 26700 nM. For the same molecule, the TGI [61] was 28900 nM and the TGI [62] was 29500 nM.
